Measured values taken from ChEMBL document CHEMBL3351749, “Synthesis, in vitro antimicrobial and cytotoxic activities of new carbazole derivatives of ursolic acid” (Bioorg Med Chem Lett, 2015).
Converted amounts (≈) assume the structure as drawn.

Experiments:
Bacillus subtilis = assay: Antimicrobial activity against Bacillus subtilis CGMCC1.1162 after 24 hrs by modified microdilution method; assay type: functional; details: CGMCC1.1162, 24 h
Staphylococcus aureus = assay: Antimicrobial activity against Staphylococcus aureus CGMCC1.1361 after 24 hrs by modified microdilution method; assay type: functional; details: CGMCC1.1361, 24 h
Escherichia coli = assay: Antimicrobial activity against Escherichia coli CGMCC1.1571 after 24 hrs by modified microdilution method; assay type: functional; details: CGMCC1.1571, 24 h
Pseudomonas fluorescens = assay: Antimicrobial activity against Pseudomonas fluorescens CGMCC1.1828 after 24 hrs by modified microdilution method; assay type: functional; details: CGMCC1.1828, 24 h
Aspergillus niger = assay: Antimicrobial activity against Aspergillus niger CGMCC3.316 after 48 hrs by modified microdilution method; assay type: functional; details: CGMCC3.316, 48 h
Candida albicans = assay: Antimicrobial activity against Candida albicans CGMCC2.2086 after 48 hrs by modified microdilution method; assay type: functional; details: CGMCC2.2086, 48 h
Candida tropicalis = assay: Antimicrobial activity against Candida tropicalis CGMCC2.3967 after 48 hrs by modified microdilution method; assay type: functional; details: CGMCC2.3967, 48 h
[1] = Cytotoxicity against human […] cells assessed as cell survival after 48 hrs by MTT assay; assay type: functional, cell-based
HepG2 = assay: Cytotoxicity against human HepG2 cells assessed as cell survival after 48 hrs by MTT assay; assay type: functional, cell-based; details: HepG2, 48 h
[2] = Cytotoxicity against human LO2 cells assessed as cell survival after 48 hrs by MTT assay; assay type: cell-based; details: L02, 48 h

C[C@H]1[C@H](C)CC[C@]2(C(=O)O)CC[C@]3(C)C(=CC[C@@H]4[C@@]5(C)Cc6c([nH]c7ccccc67)C(C)(C)[C@@H]5CC[C@]43C)[C@H]12
MIC (Bacillus subtilis): 15.6 µg/mL (≈ 29.6 µM) | MIC (Staphylococcus aureus): 31.2 µg/mL (≈ 59.1 µM) | MIC (Escherichia coli): 15.6 µg/mL (≈ 29.6 µM) | MIC (Pseudomonas fluorescens): 15.6 µg/mL (≈ 29.6 µM) | MIC (Aspergillus niger): > 100 µg/mL | MIC (Candida albicans): > 100 µg/mL | MIC (Candida tropicalis): > 100 µg/mL | IC50 [1]: 40.4 µM | IC50 (HepG2): 25.8 µM

C[C@H]1[C@H](C)CC[C@]2(C(=O)O)CC[C@]3(C)C(=CC[C@@H]4[C@@]5(C)Cc6c([nH]c7ccc(F)cc67)C(C)(C)[C@@H]5CC[C@]43C)[C@H]12
MIC (Bacillus subtilis): 15.6 µg/mL (≈ 28.6 µM) | MIC (Staphylococcus aureus): 15.6 µg/mL (≈ 28.6 µM) | MIC (Escherichia coli): 15.6 µg/mL (≈ 28.6 µM) | MIC (Pseudomonas fluorescens): 31.2 µg/mL (≈ 57.2 µM) | MIC (Aspergillus niger): 62.5 µg/mL (≈ 115 µM) | MIC (Candida albicans): 62.5 µg/mL (≈ 115 µM) | MIC (Candida tropicalis): > 100 µg/mL | IC50 [1]: 16.3 µM | IC50 (HepG2): 15.2 µM

Cc1ccc2[nH]c3c(c2c1)C[C@]1(C)[C@H]2CC=C4[C@@H]5[C@@H](C)[C@H](C)CC[C@]5(C(=O)NCCCN(C)C)CC[C@@]4(C)[C@]2(C)CC[C@H]1C3(C)C
MIC (Bacillus subtilis): 15.6 µg/mL (≈ 24.9 µM) | MIC (Staphylococcus aureus): 31.2 µg/mL (≈ 49.8 µM) | MIC (Escherichia coli): 31.2 µg/mL (≈ 49.8 µM) | MIC (Pseudomonas fluorescens): 31.2 µg/mL (≈ 49.8 µM) | MIC (Aspergillus niger): 62.5 µg/mL (≈ 99.8 µM) | MIC (Candida albicans): > 100 µg/mL | MIC (Candida tropicalis): > 100 µg/mL | IC50 [1]: 1.08 µM | IC50 (HepG2): 1.26 µM | IC50 [2]: 5.75 µM

C[C@H]1[C@H](C)CC[C@]2(C(=O)O)CC[C@]3(C)C(=CC[C@@H]4[C@@]5(C)CCC(=O)C(C)(C)[C@@H]5CC[C@]43C)[C@H]12 [URSONIC ACID]
MIC (Bacillus subtilis): 31.2 µg/mL (≈ 68.6 µM) | MIC (Staphylococcus aureus): 62.5 µg/mL (≈ 137 µM) | MIC (Escherichia coli): 31.2 µg/mL (≈ 68.6 µM) | MIC (Pseudomonas fluorescens): 62.5 µg/mL (≈ 137 µM) | MIC (Aspergillus niger): > 100 µg/mL | MIC (Candida albicans): > 100 µg/mL | MIC (Candida tropicalis): > 100 µg/mL | IC50 [1]: > 100 µM | IC50 (HepG2): > 100 µM
